Experimental data published in patent US8466291B2, “1,5-dideoxy-1,5-imino-D-glucitol compounds” (Academia Sinica, priority 2008, dated 2013).

Target: T1, Human HEX B (Homo sapiens, UniProt P07686)
T1 construct: Hex B protein (isolated from human placenta) was purchased from Sigma Co; purchased Sigma Co; host or cells: human placenta
Assay: Michaelis-Menten/Lineweaver-Burk kinetic inhibition of Hex B with 4MU-NAG substrate
Format: biochemical
Description: Hex B protein (isolated from human placenta) was purchased from Sigma Co.
Both O-GlcNAcase and Hex B were subjected to Michaelis-Menton kinetic analysis to determine the kinetics of their enzymatic activity in the presence of absence of Compounds 1-5 and Compound ix, using 4-methylumbelliferyl-N-acetyl-β-D-glucosaminide (4MU-NAG; purchased from Sigma Co.) as the substrate (a fluorogenic substrate). The reaction conditions for each enzyme are shown below:
Hex B: reaction mixture (0.1 nM Hex B (200 μL), 50 mM NaH2PO4, 100 mM NaCl, 0.1% BSA, 0.05-1.5 mM substrate, pH 6.5) was incubated at 30° C. for 25 minutes. The reaction was terminated by addition of a 3× quenching buffer (200 mM sodium glycine buffer, pH 10.8). The enzyme activity was determined as described above.
To determine the effects of Compounds 1-5 and Compound ix on the kinetics of both enzymes, the enzyme reactions described above were performed in the presence of each compound at different concentrations. In these reactions, the substrate concentrations were three to five fold of the concentration used for determining KM (absent compounds) and the ratio between the enzyme and the compound was 0.1-0.5 nM to 0.3 nM-200 uM. The data thus obtained were analyzed by the Lineweaver-Burk plot. The K1 values were determined by the double reciprocal plot (1/V vs. 1/[S]). More specifically, the Km values for each enzyme in the presence of one of the test compounds first determined and these values were further plotted in view of the concentrations of the compound. K1 was determined by calculating the negative value of the resulting x-intercept. The selectivity of each compound was calculated by the formula: K1 O-GlcNAcase/K1 Hex B.

T1 sequence (P07686 315-556 limits assumed): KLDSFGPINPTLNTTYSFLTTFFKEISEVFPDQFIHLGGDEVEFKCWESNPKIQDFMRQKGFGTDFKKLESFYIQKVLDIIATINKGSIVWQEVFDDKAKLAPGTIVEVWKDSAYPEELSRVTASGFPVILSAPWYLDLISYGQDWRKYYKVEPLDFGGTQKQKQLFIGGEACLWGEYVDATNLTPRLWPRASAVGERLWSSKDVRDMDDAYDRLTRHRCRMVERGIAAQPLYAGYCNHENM
T1 sequence (P07686 122-311 limits assumed): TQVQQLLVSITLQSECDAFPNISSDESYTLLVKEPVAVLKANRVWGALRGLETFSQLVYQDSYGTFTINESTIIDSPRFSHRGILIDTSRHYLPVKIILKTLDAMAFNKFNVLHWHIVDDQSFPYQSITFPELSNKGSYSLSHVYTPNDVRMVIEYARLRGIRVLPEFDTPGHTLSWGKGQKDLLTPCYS
T1 sequence (P07686 50-107 partner limits assumed): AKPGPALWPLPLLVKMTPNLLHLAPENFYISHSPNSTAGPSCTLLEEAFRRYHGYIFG

With `CC(=O)NC1CN(CCCCCCCNC(=O)CCCCC2SCC3NC(=O)NC32)C(CO)C(O)C1O` (centres unmarked) [Compound 5] the Ki (Table 1) was 26.7 ± 1.11 nM and the Ki (Table 2) was 26.7 ± 1.11 nM.
